Laboratory results published in patent publication US20150218212A1, “FLUORINATED EPOXYKETONE-BASED TETRAPEPTIDE COMPOUNDS AND USES THEREOF AS PROTEASOME INHIBITORS” (FLUORINOV PHARMA INC., priority 2012, published 2015).
Where two headings read alike, the source gives them in different places.

Columns and labels:
Assay type in all cases: in vivo, NOD/SCID mice
[1] = target: T1, proteasome Caspase-like (C-L) activity (Mus musculus, UniProt P70195+Q60692); assay: Pharmacodynamic proteasome activity in murine red blood cells, C-L; conditions: iv, mice, 2 mg/kg i.v., time 0, read-out: Caspase-like (C-L) mean residual activity relative to vehicle treated controls
T1 construct: RBCs were lysed with assay lysis buffer and incubated on ice for 30 minutes; from tissue; host or cells: red blood cells of NOD/SCID mice
Method: (§1) Cells were harvested by centrifugation at 1,200 rpm at room temperature. Cell pellets were washed with PBS (phosphate buffered saline) and lysed with assay lysis buffer (50 mM HEPES (N-2-hydroxyethylpiperazine-N′-2-ethanesulfonic acid), pH 7.5; 150 mM NaCl; 1% Triton X-100; 2 mM ATP). Cell lysates were incubated on ice for 30 minutes, mixed by vortex every 5 minutes, and then centrifuged at 12,000 g for 10 minutes. The supernatant was transferred to a 96-well plate. For each assay, 10 μg of total protein were incubated for 1 hour at 37° C. with increasing concentrations (1 nM to 10 μM) of test compound diluted in assay buffer (50 mM tris-HCl (tris(hydroxymethyl)aminomethane-HCl), pH 7.5; 150 mM NaCl). DMSO alone was used as a control in every assay plate. After incubation, a specific fluorogenic proteasome substrate was added to each assay reaction at a final concentration of 40 μM in a total volume of 100 μL. N-Succinyl-Leu-Leu-Val-Tyr-7-amino-4-methylcoumarin (Suc-Leu-Leu-Val-Tyr-AMC) was used for measuring chymotrypsin-like (CT-L) activity, t-butoxycarbonyl-Leu-Arg-Arg-7-amino-4-methylcoumarin (Boc-Leu-Arg-Arg-AMC) for trypsin-like (T-L) activity, and benzyloxycarbonyl-L-leucyl-L-leucyl-L-glutamyl-7-amino-4-methylcoumarin (Z-Leu-Leu-Glu-AMC) for caspase-like (C-L) activity. The excitation wavelength was set at 360 nm and the fluorescence emission wavelength of AMC was detected at 460 nm. The fluorescence of free AMC released during the enzymatic reaction was measured with a SpectraMax M5 fluorescent spectrophotometric plate reader (Molecular Devices, Sunnyvale, Calif.). AMC release rate was measured at 37° C. in a kinetic mode, recording every 5 minutes for 30 minutes. Experiments were performed in triplicate and repeated at least twice.
(§2) All mouse experiments were performed in accordance with approval from the Ontario Cancer Institute institutional animal review board. Five- to six-week-old male non-obese diabetic/severe combined immunodeficient (NOD/SCID) mice were grouped randomly (n=3 mice per group). Mice were administered vehicle (5% DMSO, 20% Cremophor) or compounds of Formula I at different doses either intravenously or by oral gavage, and venous blood samples (20-50 μL) were collected from each mouse over 24 hours. Blood samples were mixed with heparin (APP Pharmaceuticals; Schaumburg, Ill.) in 0.5 mL tubes in accordance with the manufacturer's instructions. After centrifugal separation at 3,000 g for 10 minutes, red blood cells (RBCs) in the bottom layer were transferred into a new tube and stored at −70° C. until use. RBCs were lysed with assay lysis buffer and incubated on ice for 30 minutes, mixing by vortex every 5 minutes, and then centrifuged at 12,000 g for 10 minutes. The supernatant was transferred to a 96-well plate and proteasome activity was measured as described above for tumor cell lysates.
(§3) Proteasome subunit activity (Chymotrypsin-like, Trypsin-like, Caspase-like, CT-L, T-L, C-L, respectively) were monitored over the course of 24 hrs following […] administration of representative compounds of Formula I. NOD/SCID mice were treated with compounds of Formula I (2 mg/kg by iv administration) or vehicle control and carfilzomib for up to 24 hours, as described above. Table 9 summarizes the data on pharmacodynamic activity of representative compounds of Formula I following a dose of 2 mg/kg intravenous (i.v) administration to mice. Data are presented as mean residual activity (SEM) relative to vehicle treated controls.

[2] = target: T2, proteasome Trypsin-like (T-L) activity (Mus musculus, UniProt P70195+Q9R1P1); assay: Pharmacodynamic proteasome activity in murine red blood cells, T-L; conditions: iv, mice, 2 mg/kg i.v., time 0, read-out: Trypsin-like (T-L) mean residual activity relative to vehicle treated controls
T2 construct: RBCs were lysed with assay lysis buffer and incubated on ice for 30 minutes; from tissue; host or cells: red blood cells of NOD/SCID mice
Method: as §1, §2, §3

[3] = target: T3, proteasome Chymotrypsin-like (CT-L) activity (Mus musculus, UniProt O09061+O55234); assay: Pharmacodynamic proteasome activity in murine red blood cells, CT-L; conditions: iv, mice, 2 mg/kg i.v.
T3 construct: RBCs were lysed with assay lysis buffer and incubated on ice for 30 minutes; from tissue; host or cells: red blood cells of NOD/SCID mice
Method: as §1, §2, §3

SMILES: CC(C)C[C@H](NC(=O)[C@H](CCc1ccccc1)NC(=O)CN1CCOCC1)C(=O)N[C@@H](Cc1ccccc1)C(=O)N[C@@H](CC(C)C)C(=O)[C@@]1(C)CO1 [Carfilzomib, carfilzomib, reference compound]
- remaining activity at 2 mg/kg [1]: 100%
- remaining activity at 2 mg/kg [2]: 100%
- remaining activity at 2 mg/kg ([3]; 30 min, read-out: Chymotrypsin-like (CT-L) mean residual activity relative to vehicle treated controls): 48%
- remaining activity at 2 mg/kg ([3]; 24 hrs, read-out: Chymotrypsin-like (CT-L) mean residual activity relative to vehicle treated controls): 46%
- remaining activity at 2 mg/kg ([3]; time 0, read-out: Chymotrypsin-like (CT-L) mean residual activity relative to vehicle treated controls): 100%
